Measurements published in patent US20220211662A1, “METHOD OF TREATING CANCER BY ADMINISTERING AN EPIGALLOCATECHIN GALLATE COMBINED WITH TYROSINE KINASE INHIBITOR” (Yunnan Daye Dihong Biotechnology Co., Ltd., priority 2019, published 2022).

Key:
A431 transplanted tumor = assay: A431 heterotransplanted tumor model in nude mouse
NCI-H1666 cells = assay: MTT cell viability, NCI-H1666 cells; format: cell-based, human; conditions: 24 hours
Description: Detection Principle: MTT method to detect cell viability
A container is best wrapped with aluminum foil paper.
Otherwise, it is difficult to reflect the real situation. […] A sample is prevented from being volatilized.

## O=C(O[C@@H]1Cc2c(O)cc(O)cc2O[C@@H]1c1cc(O)c(O)c(O)c1)c1cc(O)c(O)c(O)c1 [EGCG, EPIGALLOCATECHIN GALLATE]
A431 transplanted tumor; compared with control group
  body weight of A431 tumor-bearing mouse: promote the weight increase

## COc1cc2ncnc(Nc3ccc(F)c(Cl)c3)c2cc1OCCCN1CCOCC1 [Gefitinib]
A431 transplanted tumor; A431 transplanted tumor, combined use compared with Gefitinib alone treatment group
  tumor volume growth: better inhibitory effect
NCI-H1666 cells; in the presence of EGF
  growth of NCI-H1666 cells: does not have a significant inhibitory effect
NCI-H1666 cells; without EGF
  survival rate / growth of NCI-H1666 cells: significant inhibitory effect
